Experimental data as given in US20230122932A1, “NEW SEX PHEROMONE COMPONENTS FOR THE FALL ARMYWORM, SPODOPTERA FRUGIPERDA” (North Carolina State University, priority 2020, published 2023).
Entries after “also recorded” stand apart in the source; their conditions may differ.

How the values were obtained:
FAW males = test: No-choice linear olfactometer behavioral assay; assay type: in vivo, Spodoptera frugiperda
Method: Behavioral Assay: A no-choice linear olfactometer assay was used to test the behavior of FAW males to different formulations. The olfactometer consists of a linear Plexiglas® tube (n=6 cm i.d., length=145 cm) that was connected to an air pump that generated an internal airflow speed of 0.1 m/s. A short Plexiglas® chamber filled with activated charcoal was connected to the opposite end of the olfactometer to filter the inward air. […] An aliquot of […] was added to a piece of filter paper and solvent was left to evaporate for 30 min at room temperature. Filter papers were introduced to the olfactometer through an opening (0=2 cm) on the top of the olfactometer, 4 cm away from the charcoal filter. Filter papers were tested only once. Moths were tested for 5 minutes and the sequence of their behavioral response was recorded as: activation (wing fanning and start moving upwind), reaching the half-way point of the olfactometer (HW), close approach to the odor source (CA), and source contact (contact). The experiment was conducted 4-7 hours into the scotophase.
The tested formulations were: […]
(§1) Statistical analysis: All statistical analyses were performed in R (version 3.5.1). Behavioral responses of male FAW to formulations in the olfactometer were analyzed by binomial generalized linear model. Numbers of male FAW catches in the same day were combined per treatment and analyzed by Poisson generalized linear model (GLM). Treatments that had no catches were not included in the analyses.

male FAW [1] = test: Field test with commercial lures plus nonanal, Hartstack traps in sorghum crop; assay type: in vivo, Spodoptera frugiperda
Method: Field test with commercial formulation: The effect of adding nonanal to commercial formulations was tested in a sorghum crop for five days. Lures were purchased from two commercial suppliers, referred to herein as “Commercial Supplier A” (L105A from Seemly Biologicals Inc., Billings, Mont., United States of America) and “Commercial Supplier B” (FAW 3143 from Trécé, Adair, Okla., United States of America). These lures were formulated by the respective companies in rubber septa. Nonanal was formulated in the same way as described above and a straightened metal paper clip held together both the nonanal-loaded vial and the commercial lure. This set was installed inside a Hartstack trap and traps were positioned in the same manner described above. The attraction of male FAW to the following treatments was tested: • Commercial Supplier B lure combined with clean paraffin oil in vial dispenser (no nonanal). • Commercial. Supplier B lure combined with 20 μg of nonanal in vial dispenser. • Commercial Supplier A lure combined with clean paraffin oil in vial dispenser (no nonanal). • Commercial Supplier A lure combined with 20 μg of nonanal in vial dispenser.
A second study was conducted in the same crop over a second five-day period, aimed to investigate different doses of nominal in combination with Commercial Supplier A lures. Using the same procedure described above, the attraction of male FAW was tested to the following treatments: • Commercial. Supplier A lure combined with clean paraffin oil in vial dispenser (no nonanal). • Commercial Supplier A lure combined with 10 μg of nonanal in vial dispenser. • Commercial Supplier A lure combined with 20 μg of nonanal in vial dispenser. • Commercial Supplier A lure combined with 40 μg of nonanal in vial dispenser. • Commercial Supplier A lure combined with 80 μg of nonanal in vial dispenser.
as §1

antenna of FAW males = test: GC-EAD electrophysiology of female pheromone gland extract on male antenna; set-up: species or system Spodoptera frugiperda; conditions: 1 μl female pheromone gland extract
Method: Electrophysiology: The sex pheromone gland of ten 3-4-day old FAW females was dissected and placed in a glass insert containing 30 μl hexane (SupraSolv®; MilliporeSigma, Burlington, Mass., United States of America). After 10 min, the hexane extract was transferred to a second insert and concentrated down to 10 μl under a gentle flow of nitrogen. A gas chromatograph coupled to an electroantennogram detector (GC-EAD) was used to identify biologically active compounds that are perceived by the antenna of FAW males, since the antenna is the main olfactory organ of insects. The GC separates chemical mixes into individual compounds and directs them to the insect antenna, which is connected to an amplifier, the EAD. In parallel to the GC, the electrophysiological response of the antenna is recorded to identify the active compounds. An aliquot of 1 μl of the pheromone gland extract was injected in the GC-EAD where a male FAW antenna was mounted. Clean hexane that was handled in the same manner without glands was used as control.

male FAW [2] = test: Field assays, Hartstack traps in cotton field, 2-component pheromone mix with nonanal; assay type: in vivo, Spodoptera frugiperda
Method: Field Assays: Formulations were tested under field conditions. Z9-14:OAc and Z7-12:OAc were diluted in hexane and 100 μL of the solution containing 100 μg and 0.58 μg of the respective compounds was loaded to a rubber septum (11 mm; Wheaton, DWK Life Sciences, Millville, N.J., United States of America). The septum was left inside a fume hood for 15 hr for the solvent to evaporate and then tested in field assays. Nonanal was diluted in paraffin oil and 100 μL of the solution was transferred to a vial dispenser. The solution contained either 0.1 μg or 1 μg, which corresponded to 0.1% and 1% of the amount of Z9-14:OAc. This dispenser constituted a 2 ml borosilicate vial covered with aluminum foil and contained 50 mg of deactivated glass wool. The vial was loaded with a nonanal solution and capped. […] A straightened metal paper clip pierced through the small cup of a pheromone-loaded rubber septum and was tied around the neck of a nonanal-loaded vial. This set was held by a steel alligator clip installed inside a Hartstack trap. We tested the attraction of male FAW to the following treatments: • Control: clean hexane loaded into a rubber septum and clean paraffin oil in a, vial dispenser • Pheromone mix: 100 μj of Z9-14:OAc and 0.58 μg of Z7-12:OAc in rubber septum and clean paraffin oil in vial dispenser • Pheromone 4-0.1% Nonanal: Pheromone mix in rubber septum and 0.1 μg of nonanal in vial dispenser • Pheromone+1% Nonanal: Pheromone mix in rubber septum and 1 μg of nonanal in vial dispenser
The Hartstack trap consisted of a conical body made of metal mesh with a removal top (H: 15 cm, ø=14 cm) in which males were trapped. Traps stood over the canopy of crops on rebars (L: 1.5 m) that were fixed to the ground. Traps were set for one week in a cotton field along the crop row, 15 m apart. Each experimental block consisted of 4 traps 15 m from each other. The next block was set 15 m from the first block and parallel to it. Each treatment was replicated once within a block and assigned randomly to trap positions. The number of trapped male FAW moths and other species were counted daily and traps were rotated.
A second study repeated the same procedure described above but increased the amount of Z9-14:OAc and Z7-12:OAc in the mix to 1000 μg and 5.8 μg, respectively, and nonanal to 10, 20 and 40 μg. The attraction of male FAW was tested to the following treatments: • Control: clean hexane loaded into a rubber septum and clean paraffin oil loaded into a vial dispenser • Pheromone mix: 1000 μg of Z9-14:OAc and 5.8 μg of Z7-12:OAc in rubber septum and clean paraffin oil in vial dispenser (no nonanal). • Pheromone 4-1% Nonanal: Pheromone mix in rubber septum and 10 μg of nonanal in vial dispenser. • Pheromone+2% Nonanal: Pheromone mix in rubber septum and 20 μg of nonanal in vial dispenser. • Pheromone+4% Nonanal: Pheromone mix in rubber septum and 40 μg of nonanal in vial dispenser.
as §1

[3] = nonanal at all doses (0.05, 0.1, 1% relative to 100 ng Z9-14:OAc) added to 2-component formulation, N=15

Q: With `CCCCCCCCC=O` [nonanal] as the compound, how does the “males that reached the pheromone source” value (FAW males; 1% nonanal (1 ng) added to 2-component formulation (Formulation #4), N=15) read?
A: 100%

Q: And the “effect on attraction / pheromone-triggered response of males” value (FAW males; nonanal 0.05, 0.1, 1% added to 2-component formulation, olfactometer)?
A: enhanced the attraction of male FAW

Q: And the males activated (FAW males; [3])?
A: 100%

Q: What about the “males that reached the pheromone source” value (FAW males; [3]) of the same compound?
A: more than 66%

Q: What about the “increase of trap catches compared to commercial lure alone” value (male FAW [1]; 20 μg (1%) nonanal added to Commercial Supplier A lure, sorghum field) of the same compound?
A: 46.5%

Q: What about the “increase of trap catches compared to commercial lure alone” value (male FAW [1]; 20 μg (1%) nonanal added to Commercial Supplier B lure, sorghum field) of the same compound?
A: 53%

Q: And the “number of males caught per day” value (male FAW [1]; 20 μg nonanal added to Commercial Supplier A and B lures, sorghum field, four traps per treatment)?
A: significantly increased the number of males caught per day compared to the commercial lures alone

Q: And the “number of males caught per day” value (male FAW [1]; second study (FIG. 6): nonanal added to Commercial Supplier A (Scentry) lure, sorghum field, five days)?
A: significantly increased the number of males caught compared to the commercial lures alone

Q: What about the “number of males caught compared to the commercial lure alone” value (male FAW [1]; second study: 80 μg (4%) nonanal added to Commercial Supplier A lure, sorghum field) of the same compound?
A: 52.4%

Q: And the “trap catches” value (male FAW [1]; second study: 1% nonanal added to Commercial Supplier A lure)?
A: only slightly increased the trap catches

Q: What about the “trap catches” value (male FAW [1]; second study: 2% nonanal added to Commercial Supplier A lure) of the same compound?
A: only slightly increased the trap catches

Q: What about the “trap catch” value (male FAW [1]; second study: 8% nonanal added to Commercial Supplier A lure) of the same compound?
A: decreased trap catch

Q: And the “antennal (EAD) response” value (antenna of FAW males)?
A: active; also recorded: robust antennal responses

Q: What about the “trap catch” value (male FAW [2]; 0.1% nonanal (0.1 μg) added to 100 μg Z9-14:OAc + 0.58 μg Z7-12:OAc, cotton field) of the same compound?
A: intermediate trap catch between the pheromone mix alone and with the addition of 1% nonanal

Q: And the “improvement of male catches compared to the pheromone mix alone” value (male FAW [2]; 1% nonanal (1 μg) added to 100 μg Z9-14:OAc + 0.58 μg Z7-12:OAc, cotton field)?
A: 155%

Q: And the “number of males caught per day” value (male FAW [2]; 1% nonanal added to 100 μg Z9-14:OAc + 0.58 μg Z7-12:OAc, cotton field, three traps, six days)?
A: highest number of males caught

Q: What about the “nonanal percentage (compared to Z9-14:OAc) that rendered the highest number of trap catches in the field” value (male FAW [2]; field assays) of the same compound?
A: 1 % (weight/weight)

Q: What about the “numbers of male FAW in traps” value (male FAW [2]; nonanal 0.1 and 1 μg added to 100 μg Z9-14:OAc + 0.58 μg Z7-12:OAc, cotton field) of the same compound?
A: significantly increased the numbers of male FAW in traps

Q: And the “male catches per day, more than the pheromone alone” value (male FAW [2]; second assay: 1% nonanal added to 1 mg Z9-14:OAc + 5 μg Z7-12:OAc, cotton field)?
A: 100%

Q: And the “number of males caught per day” value (male FAW [2]; second assay: 1% nonanal added to pheromone mix (1 mg Z9-14:OAc), cotton field, nine days)?
A: highest number of male catches per day; also recorded: highest number of males caught

Q: What about the “number of males caught” value (male FAW [2]; second assay: 2% nonanal added to pheromone mix (1 mg Z9-14:OAc), cotton field) of the same compound?
A: decreased the number of males caught and was not significantly different from the pheromone formulation alone

Q: And the “number of males caught” value (male FAW [2]; second assay: 4% nonanal added to pheromone mix (1 mg Z9-14:OAc), cotton field)?
A: decreased the number of males caught and was not significantly different from the pheromone formulation alone

Q: And the “trap catch” value (male FAW [2]; second assay: nonanal alone (1% and 4%), no pheromone mix, cotton field)?
A: did not yield any catch; also recorded: did not catch any males
